Our source for the inhibition values is article PMC6934184, “Selective DNA-PKcs inhibition extends the therapeutic index of localized radiotherapy and chemotherapy” (The Journal of Clinical Investigation, 2019).

The target of this test is T1, ALK C1156Y (Homo sapiens, UniProt Q9UM73, C1156Y).
T1 construct: purchased Thermo Fisher Scientific (Life Technologies) SelectScreen
The test can be described thus: SelectScreen LanthaScreen. It is filed as binding. To be noted: read-out: % displacement. A digest of the protocol:
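Percent values come from Thermo SelectScreen profiling of NU5455, combining activity and binding assays. CSF1R was run in Z'LYTE format at Km app ATP, and CAMK1 in Adapta format with ATP listed at 10.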

T1 sequence (Q9UM73 19-1620 C1156Y): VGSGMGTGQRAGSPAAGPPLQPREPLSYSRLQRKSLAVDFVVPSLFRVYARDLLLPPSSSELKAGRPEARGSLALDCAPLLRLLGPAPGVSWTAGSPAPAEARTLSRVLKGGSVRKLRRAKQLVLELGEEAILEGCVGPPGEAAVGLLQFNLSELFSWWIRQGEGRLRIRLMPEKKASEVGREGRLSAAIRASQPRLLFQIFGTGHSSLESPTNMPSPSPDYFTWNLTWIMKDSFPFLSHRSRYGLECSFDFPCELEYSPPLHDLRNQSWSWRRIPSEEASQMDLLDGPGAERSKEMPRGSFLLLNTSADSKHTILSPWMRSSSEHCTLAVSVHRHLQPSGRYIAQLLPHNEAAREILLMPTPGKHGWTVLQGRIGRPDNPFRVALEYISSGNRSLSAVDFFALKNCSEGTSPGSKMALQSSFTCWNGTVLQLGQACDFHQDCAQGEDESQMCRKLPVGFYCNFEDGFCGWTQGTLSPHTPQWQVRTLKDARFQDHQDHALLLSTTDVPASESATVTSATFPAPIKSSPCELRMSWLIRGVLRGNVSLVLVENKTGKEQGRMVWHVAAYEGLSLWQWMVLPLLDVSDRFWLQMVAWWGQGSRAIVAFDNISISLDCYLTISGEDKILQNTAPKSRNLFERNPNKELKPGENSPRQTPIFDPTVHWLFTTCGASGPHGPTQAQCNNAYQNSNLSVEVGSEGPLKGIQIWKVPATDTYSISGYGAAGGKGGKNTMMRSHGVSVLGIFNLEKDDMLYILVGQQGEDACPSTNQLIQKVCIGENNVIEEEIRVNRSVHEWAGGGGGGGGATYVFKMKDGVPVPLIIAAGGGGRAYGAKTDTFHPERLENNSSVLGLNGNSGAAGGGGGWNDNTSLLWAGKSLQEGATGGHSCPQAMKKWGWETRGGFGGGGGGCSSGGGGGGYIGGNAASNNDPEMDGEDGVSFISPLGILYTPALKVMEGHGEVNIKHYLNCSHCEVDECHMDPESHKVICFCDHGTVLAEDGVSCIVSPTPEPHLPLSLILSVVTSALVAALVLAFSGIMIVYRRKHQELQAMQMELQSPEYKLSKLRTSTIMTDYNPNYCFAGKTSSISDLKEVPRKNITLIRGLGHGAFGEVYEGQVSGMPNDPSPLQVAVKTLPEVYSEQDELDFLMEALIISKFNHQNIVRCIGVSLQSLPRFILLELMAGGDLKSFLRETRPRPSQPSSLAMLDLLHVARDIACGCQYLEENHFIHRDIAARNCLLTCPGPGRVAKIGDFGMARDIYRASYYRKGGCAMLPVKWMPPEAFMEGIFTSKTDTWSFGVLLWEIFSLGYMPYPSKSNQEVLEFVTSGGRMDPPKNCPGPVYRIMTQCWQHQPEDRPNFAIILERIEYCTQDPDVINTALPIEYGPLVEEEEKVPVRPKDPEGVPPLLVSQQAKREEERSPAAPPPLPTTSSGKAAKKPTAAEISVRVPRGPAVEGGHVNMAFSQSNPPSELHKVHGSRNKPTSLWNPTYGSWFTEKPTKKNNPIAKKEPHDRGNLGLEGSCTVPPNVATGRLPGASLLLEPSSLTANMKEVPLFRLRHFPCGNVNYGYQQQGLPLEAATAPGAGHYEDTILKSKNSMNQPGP

As for `CN(C(=O)CN1CCOCC1)c1ccc2sc3c(-c4cccc5c(=O)cc(N6CC7CCC(C6)O7)oc45)cccc3c2c1` [NU5455], the inhibition at 1 µM was 0.6%.
